Measurements reported in ChEMBL document CHEMBL1141045, “Cyclic sulfamide gamma-secretase inhibitors” (Bioorg Med Chem Lett, 2005).

Tests used:
Gamma-secretase = assay: Inhibitory concentration against gamma-secretase in whole cell SH-SY5Y assay; type: protein-complex assay
[1] = (§1) AUC after administration of 30 (mpk) to rat through oral route; type: ADME, organism-based, Plasma; details: plasma, 30 mg/kg
[2] = AUC after administration of 4 (mpk) to rat through oral route; type: ADME, organism-based; details: plasma, 4 mg/kg
[3] = AUC after administration of 1 (mpk) to rat through oral route; type: ADME, organism-based; details: plasma, 1 mg/kg
Rattus norvegicus = assay: as §1; type: ADME, organism-based, Plasma; details: in vivo, 30 mg/kg

Compound | IC50 (Gamma-secretase) [nM] | further results
O=S1(=O)N[C@@]2(CN1CC(F)(F)F)[C@@H]1CC[C@H]2Cc2ccc(/C=C/CN3CCCCC3)cc2C1 | 250 | –
CC1CCN(C/C=C/c2ccc3c(c2)C[C@H]2CC[C@@H](C3)[C@]23CN(CC(F)(F)F)S(=O)(=O)N3)CC1 | 18 | –
CN1CCN(C/C=C/c2ccc3c(c2)C[C@H]2CC[C@@H](C3)[C@]23CN(CC(F)(F)F)S(=O)(=O)N3)CC1=O | 21 | –
O=S1(=O)N[C@@]2(CN1C(F)(F)F)[C@@H]1CC[C@H]2Cc2ccccc2C1 | 17 | –
CCCNS(=O)(=O)N[C@H]1[C@@H]2CC[C@H]1Cc1ccccc1C2 | 132 | AUC [1]: 0.6 µM·h
O=S(=O)(NC1[C@@H]2CC[C@H]1Cc1ccc(/C=C/CN3CCOCC3)cc1C2)c1ccc(Cl)s1 (some centres not stated) | 1 | AUC [2]: 0.38 µM·h
O=S(=O)(N[C@H]1[C@@H]2CC[C@H]1Cc1ccccc1C2)NC(F)(F)F | 134 | –
CC(=O)N1CCN(C/C=C/c2ccc3c(c2)C[C@H]2CC[C@@H](C3)[C@]23CN(CC(F)(F)F)S(=O)(=O)N3)CC1 | 4 | –
CCNS(=O)(=O)N[C@H]1[C@@H]2CC[C@H]1Cc1ccccc1C2 | 394 | –
CCN1C[C@]2(NS1(=O)=O)[C@@H]1CC[C@H]2Cc2ccccc2C1 | 429 | –
O=S1(=O)N[C@@]2(CN1CC(F)(F)F)[C@@H]1CC[C@H]2Cc2ccc(/C=C/CN3CCC(C(F)(F)F)CC3)cc2C1 | 0.5 | –
CCCN1C[C@]2(NS1(=O)=O)[C@@H]1CC[C@H]2Cc2ccc(/C=C/CN3CCOCC3)cc2C1 | 19 | AUC [3]: 1.19 µM·h
CCCN1C[C@]2(NS1(=O)=O)[C@@H]1CC[C@H]2Cc2ccccc2C1 | 138 | AUC [3]: 0.1 µM·h
CCCN1C[C@]2(NS1(=O)=O)[C@@H]1CC[C@H]2Cc2ccc(/C=C/CN3CCC(C(F)(F)F)CC3)cc2C1 | 2 | –
O=S1(=O)N[C@@]2(CN1CC(F)(F)F)[C@@H]1CC[C@H]2Cc2ccc(/C=C/CN3CCOCC3)cc2C1 | 3.4 | –
CCCCN1C[C@]2(NS1(=O)=O)[C@@H]1CC[C@H]2Cc2ccccc2C1 | 122 | –
CCCCNS(=O)(=O)N[C@H]1[C@@H]2CC[C@H]1Cc1ccccc1C2 | 766 | –
O=S(=O)(N[C@H]1[C@@H]2CC[C@H]1Cc1ccccc1C2)c1ccc(Cl)s1 | – | AUC (Rattus norvegicus): 0.01 uMh
